The subject of test [1] is PC-3. Put plainly: Antiproliferative activity against human PC3 cells assessed as cell viability at 100 uM after 72 hrs by WST-1 assay. It is filed as functional, cell-based.
The test system of test [2] is HL-60. Put plainly: Antiproliferative activity against human HL60 cells at 400 uM by WST-1 assay. It is filed as functional, cell-based.
Test [3] concerns HL-60. Put plainly: Antiproliferative activity against human HL60 cells by WST-1 assay. It is filed as functional, cell-based. The following applies: TDE = time-dependent effect.
Test [4] concerns PC-3. Put plainly: Antiproliferative activity against human PC3 cells assessed as reduction of cell viability at 400 uM after 72 hrs by WST-1 assay. It counts as functional, cell-based.
Test [5] has as its system PC-3. Put plainly: Antiproliferative activity against human PC3 cells assessed as reduction of cell viability after 72 hrs by WST-1 assay relative to control. It is filed as functional. Details: concentration or dose not given beside the values.

Activity calls are given as the source filed them. The calls are words filed in the database; no cut-off is given here.

Regarding `CC(C)=CCC/C(C)=C/COP(=O)(O)OCC(COC=O)OC=O` (configuration not stated), in the test on PC-3 [1], the result was Active.
As to `CC(C)=CCC/C(C)=C\COP(=O)(O)OCC(COC=O)OC=O` (configuration not stated), the outcome in the test on PC-3 [1] was Active.
On to `CC(C)=CCC/C(C)=C/CO` [GERANIOL], for which the outcome in the test with HL-60 [2] and in the test with PC-3 [4] was inactive. The Activity entry in the test on HL-60 [3] was “tde”; in the test with PC-3 [5], 10%.
For `CC1(C)C2CC=C(CO)C1C2` (configuration not stated) [MYRTENOL], the outcome with HL-60 [2] and in the test on PC-3 [4] was inactive. In addition, the Activity entry in the test with HL-60 [3] is “tde”; in the test on PC-3 [5], 10%.
Turning to `CC(C)=CCC/C(C)=C\CO` [NEROL], the result in the test with HL-60 [2] and in the test with PC-3 [4] was inactive. In addition, the Activity result with HL-60 [3] was “tde”; with PC-3 [5], 10%.
With `C=C(C)[C@@H]1CC=C(CO)CC1` [PERILLYL ALCOHOL], the outcome in the test with HL-60 [2] and in the test on PC-3 [4] was inactive. For the same compound, the Activity result was “tde” with HL-60 [3] and 10% in the test with PC-3 [5].
Turning to `CC1(C)C2CC=C(COP(=O)(O)OCC(COC=O)OC=O)C1C2` (configuration not stated) [PHOSPHATIDYL MYRTENOL], in the test on PC-3 [1], the outcome was Active. Moreover, in the test with PC-3 [5], the Activity is 10%.
`C=C(C)C1CC=C(COP(=O)(O)OCC(COC=O)OC=O)CC1` (configuration not stated) [PHOSPHATIDYL PERILLYL ALCOHOL]: in the test on PC-3 [1], the result was Active. Also, the Activity in the test with PC-3 [5] is reported as 10%.

Values taken from ChEMBL document CHEMBL1155002, “Synthesis of phosphatidylated-monoterpene alcohols catalyzed by phospholipase D and their antiproliferative effects on human cancer cells” (2008).
